Results from PubChem BioAssay (NCI).
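96-well plates; 48 h exposure; 5 concentrations. Endpoints by linear interpolation between flanking doses. Not reached: highest tested concentration assigned. Here, GI50 denotes the concentration required for 50% inhibition of growth. TGI marks complete inhibition of growth.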

Experiments:
Assay in all cases: DTP human tumour cell line panel, 48 h
PC-3 prostate = test system: PC-3 prostate
UACC-62 melanoma = test system: UACC-62 melanoma
SNB-19 CNS = test system: SNB-19 CNS
HCC-2998 colon = test system: HCC-2998 colon
MDA-MB-231 breast = test system: MDA-MB-231 breast
UO-31 renal = test system: UO-31 renal
SK-MEL-28 melanoma = test system: SK-MEL-28 melanoma
BT-549 breast = test system: BT-549 breast
HT29 colon = test system: HT29 colon
SF-539 CNS = test system: SF-539 CNS
RPMI-8226 leukemia = test system: RPMI-8226 leukemia
NCI-H226 lung = test system: NCI-H226 lung
NCI-H23 lung = test system: NCI-H23 lung
RXF 393 renal = test system: RXF 393 renal
UACC-257 melanoma = test system: UACC-257 melanoma
SN12C renal = test system: SN12C renal
COLO 205 colon = test system: COLO 205 colon
MALME-3M melanoma = test system: MALME-3M melanoma
MCF7 breast = test system: MCF7 breast
M14 melanoma = test system: M14 melanoma
TK-10 renal = test system: TK-10 renal
KM12 colon = test system: KM12 colon
OVCAR-3 ovarian = test system: OVCAR-3 ovarian
OVCAR-4 ovarian = test system: OVCAR-4 ovarian
SK-OV-3 ovarian = test system: SK-OV-3 ovarian
SW-620 colon = test system: SW-620 colon
EKVX NSCLC = test system: EKVX NSCLC
SK-MEL-2 melanoma = test system: SK-MEL-2 melanoma
K-562 leukemia = test system: K-562 leukemia
OVCAR-5 ovarian = test system: OVCAR-5 ovarian
ACHN renal = test system: ACHN renal
HOP-92 NSCLC = test system: HOP-92 NSCLC
IGROV1 ovarian = test system: IGROV1 ovarian
SF-268 CNS = test system: SF-268 CNS
A549 NSCLC = test system: A549 NSCLC
HL-60(TB) leukemia = test system: HL-60(TB) leukemia
HOP-62 NSCLC = test system: HOP-62 NSCLC
LOX IMVI melanoma = test system: LOX IMVI melanoma
CCRF-CEM leukemia = test system: CCRF-CEM leukemia
A498 renal = test system: A498 renal
CAKI-1 renal = test system: CAKI-1 renal
OVCAR-8 ovarian = test system: OVCAR-8 ovarian
MOLT-4 leukemia = test system: MOLT-4 leukemia
SF-295 CNS = test system: SF-295 CNS
MDA-MB-468 breast = test system: MDA-MB-468 breast
NCI-H522 lung = test system: NCI-H522 lung
SK-MEL-5 melanoma = test system: SK-MEL-5 melanoma
NCI-H460 lung = test system: NCI-H460 lung
HCT-15 colon = test system: HCT-15 colon
MDA-MB-435 = test system: MDA-MB-435
NCI/ADR-RES ovarian = test system: NCI/ADR-RES ovarian
DU-145 prostate = test system: DU-145 prostate

`COc1cccc(COc2ccc(/C=C3\Oc4cc(O)ccc4C3=O)cc2)c1` was tested, and the GI50 (PC-3 prostate) was > 100 µM, the TGI (PC-3 prostate) was > 100 µM and the GI50 (UACC-62 melanoma) was > 100 µM. For the same compound, the TGI (UACC-62 melanoma) was > 100 µM, the GI50 (SNB-19 CNS) was > 100 µM and the TGI (SNB-19 CNS) was > 100 µM. The GI50 (HCC-2998 colon) was > 100 µM, the TGI (HCC-2998 colon) was > 100 µM and the GI50 (MDA-MB-231 breast) was > 100 µM. The TGI (MDA-MB-231 breast) was > 100 µM, the GI50 (UO-31 renal) was > 100 µM and the TGI (UO-31 renal) was > 100 µM. For the same compound, the GI50 (SK-MEL-28 melanoma) was > 100 µM, the TGI (SK-MEL-28 melanoma) was > 100 µM and the GI50 (BT-549 breast) was > 100 µM. For the same compound, the TGI (BT-549 breast) was > 100 µM, the GI50 (HT29 colon) was > 100 µM and the TGI (HT29 colon) was > 100 µM. For the same compound, the GI50 (SF-539 CNS) was 23.4 µM, the TGI (SF-539 CNS) was > 100 µM and the GI50 (RPMI-8226 leukemia) was > 100 µM. The TGI (RPMI-8226 leukemia) was > 100 µM, the GI50 (NCI-H226 lung) was > 100 µM and the TGI (NCI-H226 lung) was > 100 µM. The GI50 (NCI-H23 lung) was > 100 µM, the TGI (NCI-H23 lung) was > 100 µM and the GI50 (RXF 393 renal) was > 100 µM. For the same compound, the TGI (RXF 393 renal) was > 100 µM, the GI50 (UACC-257 melanoma) was > 100 µM and the TGI (UACC-257 melanoma) was > 100 µM. The GI50 (SN12C renal) was > 100 µM, the TGI (SN12C renal) was > 100 µM and the GI50 (COLO 205 colon) was > 100 µM. For the same compound, the TGI (COLO 205 colon) was > 100 µM, the GI50 (MALME-3M melanoma) was > 100 µM and the TGI (MALME-3M melanoma) was > 100 µM. For the same compound, the GI50 (MCF7 breast) was > 100 µM, the TGI (MCF7 breast) was > 100 µM and the GI50 (M14 melanoma) was > 100 µM. The TGI (M14 melanoma) was > 100 µM, the GI50 (TK-10 renal) was > 100 µM and the TGI (TK-10 renal) was > 100 µM. For the same compound, the GI50 (KM12 colon) was > 100 µM, the TGI (KM12 colon) was > 100 µM and the GI50 (OVCAR-3 ovarian) was > 100 µM. For the same compound, the TGI (OVCAR-3 ovarian) was > 100 µM, the GI50 (OVCAR-4 ovarian) was 2.94 µM and the TGI (OVCAR-4 ovarian) was 10.6 µM. For the same compound, the GI50 (SK-OV-3 ovarian) was > 100 µM, the TGI (SK-OV-3 ovarian) was > 100 µM and the GI50 (SW-620 colon) was 23.1 µM. The TGI (SW-620 colon) was > 100 µM, the GI50 (EKVX NSCLC) was > 100 µM and the TGI (EKVX NSCLC) was > 100 µM. The GI50 (SK-MEL-2 melanoma) was > 100 µM, the TGI (SK-MEL-2 melanoma) was > 100 µM and the GI50 (K-562 leukemia) was > 100 µM. For the same compound, the TGI (K-562 leukemia) was > 100 µM, the GI50 (OVCAR-5 ovarian) was > 100 µM and the TGI (OVCAR-5 ovarian) was > 100 µM. For the same compound, the GI50 (ACHN renal) was 4.97 µM, the TGI (ACHN renal) was > 100 µM and the GI50 (HOP-92 NSCLC) was 2.62 µM. The TGI (HOP-92 NSCLC) was > 100 µM, the GI50 (IGROV1 ovarian) was > 100 µM and the TGI (IGROV1 ovarian) was > 100 µM. For the same compound, the GI50 (SF-268 CNS) was > 100 µM, the TGI (SF-268 CNS) was > 100 µM and the GI50 (A549 NSCLC) was > 100 µM. For the same compound, the TGI (A549 NSCLC) was > 100 µM, the GI50 (HL-60(TB) leukemia) was > 100 µM and the TGI (HL-60(TB) leukemia) was > 100 µM. The GI50 (HOP-62 NSCLC) was > 100 µM, the TGI (HOP-62 NSCLC) was > 100 µM and the GI50 (LOX IMVI melanoma) was > 100 µM. The TGI (LOX IMVI melanoma) was > 100 µM, the GI50 (CCRF-CEM leukemia) was > 100 µM and the TGI (CCRF-CEM leukemia) was > 100 µM. For the same compound, the GI50 (A498 renal) was > 100 µM, the TGI (A498 renal) was > 100 µM and the GI50 (CAKI-1 renal) was 85.2 µM. The TGI (CAKI-1 renal) was > 100 µM, the GI50 (OVCAR-8 ovarian) was > 100 µM and the TGI (OVCAR-8 ovarian) was > 100 µM. For the same compound, the GI50 (MOLT-4 leukemia) was > 100 µM, the TGI (MOLT-4 leukemia) was > 100 µM and the GI50 (SF-295 CNS) was > 100 µM. For the same compound, the TGI (SF-295 CNS) was > 100 µM, the GI50 (MDA-MB-468 breast) was 42.5 µM and the TGI (MDA-MB-468 breast) was > 100 µM. The GI50 (NCI-H522 lung) was > 100 µM, the TGI (NCI-H522 lung) was > 100 µM and the GI50 (SK-MEL-5 melanoma) was > 100 µM. For the same compound, the TGI (SK-MEL-5 melanoma) was > 100 µM, the GI50 (NCI-H460 lung) was > 100 µM and the TGI (NCI-H460 lung) was > 100 µM. The GI50 (HCT-15 colon) was > 100 µM, the TGI (HCT-15 colon) was > 100 µM and the GI50 (MDA-MB-435) was > 100 µM. For the same compound, the TGI (MDA-MB-435) was > 100 µM, the GI50 (NCI/ADR-RES ovarian) was > 100 µM and the TGI (NCI/ADR-RES ovarian) was > 100 µM. For the same compound, the GI50 (DU-145 prostate) was > 100 µM and the TGI (DU-145 prostate) was > 100 µM.
